Ten compounds from ChEMBL document CHEMBL1201862, “PubChem BioAssay data set” (2004) can be followed below.

In test [1] the target is ADP-ribosylation factor GTPase-activating protein 1 (Rattus norvegicus, UniProt Q62848). The test is described as follows: Fluorescence polarization-based biochemical high throughput dose response screening assay to identify inhibitors of ADP-ribosylation factor GTPase activating protein 1 (ARFGAP1). The test is classed as functional. A general note: Fluorescence polarisation rises when a labelled molecule tumbles more slowly, as on binding a larger partner.

Test [2] concerns the target Hepatocyte nuclear factor 4-alpha (Homo sapiens, UniProt P41235). The class given is functional, cell-based.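 Also: biochemical luminescence-based dose-response counterscreen measuring inhibition of HNF4 dimerization, run alongside a screen for blockers of ABHD5–perilipin-5 interaction; split luciferase complementation of HNF4 fusion proteins in cell lysate measuring dimerization.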
The subject of the next test is Vero. Description: Vero cell toxicity, dose response, cytotoxicity control, plate reader, cherry-pick samples (AID 687020). The test is classed as functional, cell-based. As to conditions: Chlorocebus sabaeus.
For test [3], the target named is T1, Mannose-6-phosphate isomerase (Homo sapiens, UniProt P34949).
T1 sequence (P34949 whole entry): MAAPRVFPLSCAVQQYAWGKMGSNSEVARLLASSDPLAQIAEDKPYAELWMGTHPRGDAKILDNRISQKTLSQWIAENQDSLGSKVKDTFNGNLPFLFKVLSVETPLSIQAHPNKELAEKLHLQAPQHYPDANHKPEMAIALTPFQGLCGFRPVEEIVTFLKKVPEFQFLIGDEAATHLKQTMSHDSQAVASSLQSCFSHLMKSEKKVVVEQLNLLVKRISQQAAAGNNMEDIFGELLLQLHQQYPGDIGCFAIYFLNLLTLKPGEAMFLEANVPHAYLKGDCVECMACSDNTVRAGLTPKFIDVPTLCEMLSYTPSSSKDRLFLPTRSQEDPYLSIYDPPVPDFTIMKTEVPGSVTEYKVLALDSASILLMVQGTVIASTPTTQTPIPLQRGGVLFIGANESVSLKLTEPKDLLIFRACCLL
Description: human PMI inhibitors, high substrate, primary screen, biochemical, fluorescence intensity, high mannose 6-phosphate (AID 1220).

The target in test [4] is T2, Sentrin-specific protease 8 (Homo sapiens, UniProt Q96LD8).
T2 sequence (Q96LD8 whole entry): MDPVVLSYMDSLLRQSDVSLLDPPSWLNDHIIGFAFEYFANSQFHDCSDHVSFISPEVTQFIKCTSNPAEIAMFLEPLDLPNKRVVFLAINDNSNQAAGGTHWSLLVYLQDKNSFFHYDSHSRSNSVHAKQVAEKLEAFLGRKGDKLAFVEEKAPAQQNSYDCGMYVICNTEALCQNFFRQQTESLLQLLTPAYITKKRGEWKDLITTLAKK
The class given is functional.

For test [5], the target named is T2, Sentrin-specific protease 8. The test is classed as functional. This is another data set of the same source.
Another test concerns the target Mucolipin-3 (Homo sapiens, UniProt Q8TDD5). Description: Dose response cell-based high-throughput screening assay for agonists of the transient receptor potential channel ML3 (TRPML3). [Related pubchem assays: 1526, 1424, 1448 ]. The test is classed as functional.
The next test has as its target Ion channel NompC (Danio rerio, UniProt Q7T1G6). The test is described as follows: Fluorescence counterscreen assay for TRPML3 agonists: dose response cell-based high-throughput screening assay to identify agonists of the transient receptor potential channel N1 (TRPN1). [Related pubchem assays: 1526, 1424, 1448 ]. The test is classed as functional.
For test [6], the target named is T3, Heat shock factor protein 1 (Mus musculus, UniProt P38532).
T3 sequence (P38532 whole entry): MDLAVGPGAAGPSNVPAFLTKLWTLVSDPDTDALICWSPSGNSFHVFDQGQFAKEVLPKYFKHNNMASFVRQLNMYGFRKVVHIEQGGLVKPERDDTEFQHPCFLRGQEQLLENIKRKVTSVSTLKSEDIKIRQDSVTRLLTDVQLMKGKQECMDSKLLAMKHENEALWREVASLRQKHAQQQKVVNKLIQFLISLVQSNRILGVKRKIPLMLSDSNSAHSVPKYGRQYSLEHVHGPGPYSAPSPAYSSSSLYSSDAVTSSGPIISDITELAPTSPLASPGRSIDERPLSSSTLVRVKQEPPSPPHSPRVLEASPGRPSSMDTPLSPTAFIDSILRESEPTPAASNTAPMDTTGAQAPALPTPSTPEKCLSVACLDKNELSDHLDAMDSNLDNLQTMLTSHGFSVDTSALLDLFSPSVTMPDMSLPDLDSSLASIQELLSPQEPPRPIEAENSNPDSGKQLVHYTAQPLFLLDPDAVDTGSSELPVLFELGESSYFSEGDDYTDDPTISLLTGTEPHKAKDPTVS
The test is described as follows: HSF1 potentiators in luciferase reporter cells, confirmation, cell-based, NIH3T3, luminescence, dose retest (AID 435004).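 Also: stress induced by proteasome inhibitor MG132 added 30 min after compound; luciferase reporter driven by HSF1 response element in NIH3T3 cells; actives raise luminescence as potentiators of the MG132 stress response.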 The class given is functional.

Test [7] deals with T4, Low molecular weight phosphotyrosine protein phosphatase (Homo sapiens, UniProt P24666).
T4 sequence (P24666 whole entry): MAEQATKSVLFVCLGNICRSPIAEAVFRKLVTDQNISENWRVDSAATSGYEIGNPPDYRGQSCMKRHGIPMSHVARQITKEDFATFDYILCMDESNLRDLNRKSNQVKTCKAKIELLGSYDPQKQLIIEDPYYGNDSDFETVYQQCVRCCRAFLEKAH
The class given is functional. As to conditions: read-out: IC50_Mean.

The target of test [8] is T4, Low molecular weight phosphotyrosine protein phosphatase. The class given is functional. The following applies: read-out: IC50_Mean. This is another data set of the same source.
A further test has as its system P388/ADR. Description: cells. The class given is functional. The following applies: Mus musculus.
The test system of another test is SN12K1. Description: cells. The following applies: Homo sapiens. The class given is functional.
Another test relates to P388. Description: cells. The test is classed as functional. The following applies: Mus musculus.
Test [9] deals with T5, Small ubiquitin-related modifier 1 (Homo sapiens, UniProt P63165). The test is described as follows: inhibitors of SUMO1 peptide binding, dose response, biochemical, fluorescence polarization, uHTS hits (AID 624382). The class given is functional. The following applies: read-out: IC50_Mean.
In test [10] the target is T5, Small ubiquitin-related modifier 1. The test is described as follows: inhibitors of SUMO1 partner interactions, dose response, biochemical, FRET (AID 624383). The test is classed as functional. The following applies: read-out: IC50_Mean.
The target of test [11] is T6, Rac GTPase-activating protein 1 (Homo sapiens, UniProt Q9H0H5).
T6 sequence (Q9H0H5 whole entry): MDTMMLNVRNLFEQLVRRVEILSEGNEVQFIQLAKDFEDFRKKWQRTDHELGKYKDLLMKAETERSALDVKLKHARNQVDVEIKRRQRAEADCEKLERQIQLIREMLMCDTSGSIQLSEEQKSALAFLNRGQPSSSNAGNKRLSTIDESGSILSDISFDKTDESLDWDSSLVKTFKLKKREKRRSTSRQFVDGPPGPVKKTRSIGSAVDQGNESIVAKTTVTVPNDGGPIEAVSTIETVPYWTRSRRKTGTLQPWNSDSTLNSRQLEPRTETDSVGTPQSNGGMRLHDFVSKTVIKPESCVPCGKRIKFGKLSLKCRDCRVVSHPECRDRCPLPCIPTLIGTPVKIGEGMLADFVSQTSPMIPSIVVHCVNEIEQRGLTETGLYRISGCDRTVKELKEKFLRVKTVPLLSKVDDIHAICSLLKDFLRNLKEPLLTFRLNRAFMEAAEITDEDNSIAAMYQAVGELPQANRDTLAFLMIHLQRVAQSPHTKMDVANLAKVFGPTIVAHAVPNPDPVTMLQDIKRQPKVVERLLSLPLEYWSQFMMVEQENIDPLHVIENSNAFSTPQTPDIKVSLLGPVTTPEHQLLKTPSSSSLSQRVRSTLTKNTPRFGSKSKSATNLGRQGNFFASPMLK
The test is described as follows: MgcRacGAP GTPase-activating activity inhibitors, confirmation, biochemical, ADP Hunter fluorescence, primary and confirmatory (AID 624330). The test is classed as functional.

The target in test [12] is T7, Aryl hydrocarbon receptor (Homo sapiens, UniProt P35869).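 Also: confirmatory quantitative high-throughput screen measuring activation of the AhR signaling pathway.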
T7 sequence (P35869 whole entry): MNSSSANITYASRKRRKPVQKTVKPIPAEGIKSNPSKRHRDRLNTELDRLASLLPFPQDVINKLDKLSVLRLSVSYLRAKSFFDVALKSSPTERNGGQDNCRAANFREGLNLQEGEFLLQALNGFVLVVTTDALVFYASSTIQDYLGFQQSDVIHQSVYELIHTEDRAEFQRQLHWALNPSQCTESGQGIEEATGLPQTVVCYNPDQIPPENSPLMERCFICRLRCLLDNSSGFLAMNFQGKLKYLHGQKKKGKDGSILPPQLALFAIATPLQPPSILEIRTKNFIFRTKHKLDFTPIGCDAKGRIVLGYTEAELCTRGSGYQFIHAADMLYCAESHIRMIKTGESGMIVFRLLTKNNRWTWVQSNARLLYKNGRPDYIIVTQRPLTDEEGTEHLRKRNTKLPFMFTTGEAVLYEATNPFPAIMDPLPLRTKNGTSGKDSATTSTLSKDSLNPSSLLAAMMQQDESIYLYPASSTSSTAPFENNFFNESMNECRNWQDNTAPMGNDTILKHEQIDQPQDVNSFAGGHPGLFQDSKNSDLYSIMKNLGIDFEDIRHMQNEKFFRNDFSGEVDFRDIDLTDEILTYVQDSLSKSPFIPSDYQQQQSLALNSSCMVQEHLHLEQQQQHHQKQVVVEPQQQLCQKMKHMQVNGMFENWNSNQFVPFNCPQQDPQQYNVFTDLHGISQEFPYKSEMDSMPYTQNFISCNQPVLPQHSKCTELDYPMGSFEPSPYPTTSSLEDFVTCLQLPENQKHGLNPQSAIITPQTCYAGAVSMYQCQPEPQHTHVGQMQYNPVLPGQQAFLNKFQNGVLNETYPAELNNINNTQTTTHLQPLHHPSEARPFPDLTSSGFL
The following applies: Potency.

For a further test, the target named is Mu-type opioid receptor (Homo sapiens, UniProt P35372). The class given is functional, cell-based.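 Also: U2OS cells with beta-arrestin recruitment to OPRM1 by beta-gal complementation.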
Test [13] concerns the target 5-hydroxytryptamine receptor 2A (Mus musculus, UniProt P35363). The class given is functional, cell-based.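 Also: CHO-K1 cells with tagged receptor and beta-arrestin; agonist potency measured as compound-induced activation of the receptor.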
For test [14], the target named is Beta-lactamase (Pseudomonas aeruginosa, UniProt Q79MP6).
For test [15], the target named is Beta-lactamase (Salmonella choleraesuis (strain SC-B67), UniProt Q5J463).
Test [16] is described as follows: AlphaScreen signal interference compounds, dose response, artefact control for ARNT-TACC3 interaction inhibitor project, biochemical, luminescence, cherry-pick (AID 651705).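 Also: AlphaScreen bead proximity signal that flags compounds interfering with the detection technology; potency reflects signal decrease which marks the compound as an assay artifact.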 The test is classed as functional. A general note: Bead proximity is the source of the signal in Alpha formats.
A short description of test [17]: Artemis endonuclease inhibitor potency, dose response, biochemical, fluorescence intensity (AID 720701).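 Also: Artemis endonuclease enzyme.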 The class given is functional.
For test [18], the target named is T8, Sentrin-specific protease 1 (Homo sapiens, UniProt Q9P0U3). The test is described as follows: potency of human SENP1 inhibitors, dose response, biochemical, kinetic FRET (AID 651697). The test is classed as functional. The following applies: read-out: IC50_Mean.
Test [19] addresses T9, Fatty acid synthase (Homo sapiens, UniProt P49327). Description: FAS thioesterase domain inhibitors, dose response, biochemical, endpoint fluorescence intensity, uHTS hits (AID 624327).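 Also: fluorescence from hydrolysis of an O-methyl fluorescein acyl ester substrate by the enzyme.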 The class given is functional.
For test [20], the target named is T8, Sentrin-specific protease 1. Description: Dose response confirmation of small molecule inhibitors of the catalytic domain of the SUMO protease, SENP1 in a FRET assay. The test is classed as functional. The following applies: read-out: IC50_Mean.
Test [21] concerns the target T9, Fatty acid synthase. The test is described as follows: FAS thioesterase domain inhibitors, dose response, biochemical, kinetic fluorescence intensity (AID 624326).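 Also: rate of fluorescence rise from hydrolysis of a fluorogenic O-methyl fluorescein ester substrate.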 The class given is functional.

Structures are written as SMILES. The source made the active and inactive calls.

T9 sequence (P49327 whole entry, the tested form may be a part): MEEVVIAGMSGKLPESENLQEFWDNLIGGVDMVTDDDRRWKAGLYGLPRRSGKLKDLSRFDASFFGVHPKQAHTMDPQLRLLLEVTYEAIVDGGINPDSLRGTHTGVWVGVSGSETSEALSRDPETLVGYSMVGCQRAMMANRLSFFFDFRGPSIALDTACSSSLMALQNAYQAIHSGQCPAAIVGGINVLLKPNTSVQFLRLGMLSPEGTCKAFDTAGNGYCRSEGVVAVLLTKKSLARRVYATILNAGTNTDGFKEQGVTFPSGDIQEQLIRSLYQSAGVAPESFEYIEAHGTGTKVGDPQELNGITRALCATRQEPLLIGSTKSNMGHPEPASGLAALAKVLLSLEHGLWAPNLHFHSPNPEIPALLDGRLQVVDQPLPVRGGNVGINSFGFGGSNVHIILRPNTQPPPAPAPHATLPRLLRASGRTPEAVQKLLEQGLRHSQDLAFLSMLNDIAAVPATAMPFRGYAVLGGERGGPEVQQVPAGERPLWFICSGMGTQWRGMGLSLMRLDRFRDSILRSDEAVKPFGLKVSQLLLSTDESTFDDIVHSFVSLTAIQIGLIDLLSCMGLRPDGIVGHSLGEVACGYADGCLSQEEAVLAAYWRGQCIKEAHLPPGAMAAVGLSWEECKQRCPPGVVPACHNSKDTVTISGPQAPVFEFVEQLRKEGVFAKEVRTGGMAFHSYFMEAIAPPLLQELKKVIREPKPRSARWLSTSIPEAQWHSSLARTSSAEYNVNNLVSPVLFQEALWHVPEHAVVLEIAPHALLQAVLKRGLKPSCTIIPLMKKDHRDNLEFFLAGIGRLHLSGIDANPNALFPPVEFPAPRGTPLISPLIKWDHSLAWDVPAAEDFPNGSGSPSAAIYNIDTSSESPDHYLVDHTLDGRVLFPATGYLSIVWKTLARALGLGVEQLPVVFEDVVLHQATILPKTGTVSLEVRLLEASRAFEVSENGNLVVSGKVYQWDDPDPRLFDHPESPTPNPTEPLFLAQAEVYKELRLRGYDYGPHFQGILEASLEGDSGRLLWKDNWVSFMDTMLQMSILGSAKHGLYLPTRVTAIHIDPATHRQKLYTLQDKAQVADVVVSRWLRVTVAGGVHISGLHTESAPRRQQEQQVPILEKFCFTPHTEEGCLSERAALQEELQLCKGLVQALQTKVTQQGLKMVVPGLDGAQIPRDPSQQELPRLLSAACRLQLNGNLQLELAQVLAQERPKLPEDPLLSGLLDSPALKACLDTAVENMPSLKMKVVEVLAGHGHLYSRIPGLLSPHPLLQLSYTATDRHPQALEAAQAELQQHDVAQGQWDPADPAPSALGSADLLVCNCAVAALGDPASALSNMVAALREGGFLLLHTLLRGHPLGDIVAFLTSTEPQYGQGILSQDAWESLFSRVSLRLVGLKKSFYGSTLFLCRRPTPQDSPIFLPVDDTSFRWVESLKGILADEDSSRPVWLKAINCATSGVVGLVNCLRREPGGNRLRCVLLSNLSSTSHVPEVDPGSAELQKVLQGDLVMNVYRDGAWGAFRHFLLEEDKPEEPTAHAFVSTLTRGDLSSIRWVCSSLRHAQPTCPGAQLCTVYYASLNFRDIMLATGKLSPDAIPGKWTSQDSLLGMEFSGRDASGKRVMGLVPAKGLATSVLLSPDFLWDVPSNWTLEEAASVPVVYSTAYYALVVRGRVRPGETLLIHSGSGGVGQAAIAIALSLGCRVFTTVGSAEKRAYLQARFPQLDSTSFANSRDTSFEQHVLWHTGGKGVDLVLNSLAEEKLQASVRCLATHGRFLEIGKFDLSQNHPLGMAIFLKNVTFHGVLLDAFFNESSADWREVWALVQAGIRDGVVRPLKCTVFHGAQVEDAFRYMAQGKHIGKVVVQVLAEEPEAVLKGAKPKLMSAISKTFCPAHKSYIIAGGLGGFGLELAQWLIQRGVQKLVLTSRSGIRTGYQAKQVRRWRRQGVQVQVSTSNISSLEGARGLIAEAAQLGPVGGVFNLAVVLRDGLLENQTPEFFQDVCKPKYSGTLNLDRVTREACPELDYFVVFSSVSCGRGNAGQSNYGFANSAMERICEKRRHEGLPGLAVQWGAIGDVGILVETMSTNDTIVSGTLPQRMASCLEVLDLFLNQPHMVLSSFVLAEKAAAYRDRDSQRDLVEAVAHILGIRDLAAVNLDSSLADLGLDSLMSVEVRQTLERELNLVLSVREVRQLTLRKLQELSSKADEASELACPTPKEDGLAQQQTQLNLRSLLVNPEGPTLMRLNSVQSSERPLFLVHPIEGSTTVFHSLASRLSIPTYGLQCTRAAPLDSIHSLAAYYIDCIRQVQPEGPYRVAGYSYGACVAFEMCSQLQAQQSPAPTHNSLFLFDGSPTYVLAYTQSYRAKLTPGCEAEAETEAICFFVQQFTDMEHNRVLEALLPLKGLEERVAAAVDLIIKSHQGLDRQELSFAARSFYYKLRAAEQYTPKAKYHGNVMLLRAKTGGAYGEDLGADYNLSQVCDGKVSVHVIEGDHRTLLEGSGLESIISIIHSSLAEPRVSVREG
T5 sequence (P63165 whole entry): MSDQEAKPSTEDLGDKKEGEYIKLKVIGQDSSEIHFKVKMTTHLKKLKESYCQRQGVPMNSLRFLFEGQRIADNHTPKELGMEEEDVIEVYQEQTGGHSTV
T8 sequence (Q9P0U3 whole entry, the tested form may be a part): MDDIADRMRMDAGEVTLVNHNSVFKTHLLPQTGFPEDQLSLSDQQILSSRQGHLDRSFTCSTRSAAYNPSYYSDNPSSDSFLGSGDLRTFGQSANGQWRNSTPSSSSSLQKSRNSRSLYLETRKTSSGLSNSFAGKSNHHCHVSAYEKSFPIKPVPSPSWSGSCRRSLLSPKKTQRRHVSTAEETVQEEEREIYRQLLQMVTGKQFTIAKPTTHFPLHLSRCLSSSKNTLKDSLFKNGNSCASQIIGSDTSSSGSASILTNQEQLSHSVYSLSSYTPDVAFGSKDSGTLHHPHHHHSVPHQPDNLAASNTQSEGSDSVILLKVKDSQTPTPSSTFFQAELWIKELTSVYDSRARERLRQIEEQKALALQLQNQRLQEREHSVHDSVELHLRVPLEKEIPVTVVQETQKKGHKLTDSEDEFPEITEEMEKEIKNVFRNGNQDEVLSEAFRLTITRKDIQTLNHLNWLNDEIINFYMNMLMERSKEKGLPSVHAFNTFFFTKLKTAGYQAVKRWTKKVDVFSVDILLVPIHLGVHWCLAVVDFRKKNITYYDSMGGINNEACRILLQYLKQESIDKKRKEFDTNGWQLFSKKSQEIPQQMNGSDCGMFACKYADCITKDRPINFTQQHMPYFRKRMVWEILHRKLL
Chain of Mu-type opioid receptor (P35372 whole entry): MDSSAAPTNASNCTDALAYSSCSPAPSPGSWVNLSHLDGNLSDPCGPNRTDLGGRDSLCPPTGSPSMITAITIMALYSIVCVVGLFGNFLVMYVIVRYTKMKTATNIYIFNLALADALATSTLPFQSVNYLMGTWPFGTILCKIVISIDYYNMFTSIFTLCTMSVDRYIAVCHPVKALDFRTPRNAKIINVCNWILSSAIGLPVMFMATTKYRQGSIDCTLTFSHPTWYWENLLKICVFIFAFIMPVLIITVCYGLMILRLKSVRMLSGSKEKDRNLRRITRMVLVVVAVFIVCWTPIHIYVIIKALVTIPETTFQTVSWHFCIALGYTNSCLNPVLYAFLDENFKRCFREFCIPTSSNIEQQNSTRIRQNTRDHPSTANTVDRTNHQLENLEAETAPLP
Chain of Hepatocyte nuclear factor 4-alpha (P41235 whole entry, the tested form may be a part): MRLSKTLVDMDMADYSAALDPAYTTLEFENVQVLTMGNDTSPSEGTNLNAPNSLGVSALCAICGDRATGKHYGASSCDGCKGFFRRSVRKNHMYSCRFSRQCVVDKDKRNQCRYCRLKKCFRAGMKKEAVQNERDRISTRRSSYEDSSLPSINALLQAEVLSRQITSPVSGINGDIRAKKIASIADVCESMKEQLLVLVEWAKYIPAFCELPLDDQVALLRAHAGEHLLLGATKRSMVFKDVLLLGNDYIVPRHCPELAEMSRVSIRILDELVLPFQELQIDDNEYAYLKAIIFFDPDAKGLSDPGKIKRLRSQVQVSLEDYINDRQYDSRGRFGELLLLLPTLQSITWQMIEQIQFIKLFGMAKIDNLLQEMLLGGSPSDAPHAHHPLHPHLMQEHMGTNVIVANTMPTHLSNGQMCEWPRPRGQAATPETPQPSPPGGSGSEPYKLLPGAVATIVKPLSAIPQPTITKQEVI
Chain of Mucolipin-3 (Q8TDD5 whole entry): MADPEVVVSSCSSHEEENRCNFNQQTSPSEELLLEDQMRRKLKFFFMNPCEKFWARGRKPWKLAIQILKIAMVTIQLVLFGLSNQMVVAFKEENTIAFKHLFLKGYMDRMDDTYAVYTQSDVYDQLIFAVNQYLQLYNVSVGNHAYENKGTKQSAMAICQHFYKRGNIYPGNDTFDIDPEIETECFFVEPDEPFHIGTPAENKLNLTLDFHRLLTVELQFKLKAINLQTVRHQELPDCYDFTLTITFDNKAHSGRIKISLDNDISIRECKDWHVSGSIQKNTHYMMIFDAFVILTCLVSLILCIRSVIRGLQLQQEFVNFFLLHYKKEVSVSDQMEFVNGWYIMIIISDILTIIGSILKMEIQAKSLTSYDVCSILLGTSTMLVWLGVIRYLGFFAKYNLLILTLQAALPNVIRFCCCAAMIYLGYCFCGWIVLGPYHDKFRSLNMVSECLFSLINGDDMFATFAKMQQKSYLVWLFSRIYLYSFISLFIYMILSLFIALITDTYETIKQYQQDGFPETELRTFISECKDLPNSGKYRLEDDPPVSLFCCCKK
Chain of Beta-lactamase (Pseudomonas aeruginosa, UniProt Q79MP6) (Q79MP6 whole entry): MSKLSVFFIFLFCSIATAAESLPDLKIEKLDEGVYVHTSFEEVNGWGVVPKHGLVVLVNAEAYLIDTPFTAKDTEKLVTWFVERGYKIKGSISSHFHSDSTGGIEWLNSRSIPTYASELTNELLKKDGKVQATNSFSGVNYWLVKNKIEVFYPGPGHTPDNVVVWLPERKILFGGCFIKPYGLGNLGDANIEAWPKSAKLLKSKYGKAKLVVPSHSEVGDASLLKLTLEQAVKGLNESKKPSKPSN

In the case of `Cc1cc([N+](=O)[O-])c(C)cc1-c1ccc(/C=N/NC(=O)Cn2nnnc2N)o1`, the IC50 in test [1] was 17.8 µM (inactive).
For `O=C(NCc1ccccc1)C(C1CC1)n1c(=O)c(-c2ccco2)nc2ccccc21` (stereo not drawn), in [2], the IC50 was 6.09 µM (active).
One may read the AC50 as the concentration giving half of the maximal activity seen. For `CC(C)(CN1CCN(Cc2ccccc2)CC1)NS(=O)(=O)c1ccc(Cl)cc1`, the AC50 in the test with Vero was 33.7 µM (active).
As to `CC(C)(C)c1cc(=O)n(-c2ccccc2)[nH]1`, the values for the IC50 in [3], in [4] and in [5] were > 50 µM (not active), 19.1 µM (active) and 7.95 µM (active), respectively.
The term EC50 denotes the concentration at which the effect is half-maximal. Turning to `O=C(O)c1csc(N/N=C/c2ccc(Br)cc2)n1`, the figures for the EC50 (on Mucolipin-3; on Ion channel NompC; in test [6]) were > 29.9 µM (not active), > 29.9 µM (not active) and > 260 µM (inactive), respectively. Also, the IC50 was > 80 µM (inactive) in test [7] and 47.3 µM (inactive) in [8].
A word on the GI50: it is the concentration giving 50% growth inhibition. In the case of `O=c1oc2cc(O)ccc2c2oc3cc(O)ccc3c12` [COUMESTROL], the GI50 in the test on P388/ADR is 26.2 µM (inactive); in the test on SN12K1, 50 µM (inactive); with P388 it was 27.4 µM (inactive). Moreover, the IC50 in [9] was > 66.6 µM (inactive); in test [10] it was 14.7 µM (active); in test [11], 32.3 µM (active). Moreover, in [12], the AC50 was 50.1 µM (inconclusive).
Turning to `Cc1ccc2c(C)c(C(=O)Nc3c(C)n(C)n(-c4ccccc4)c3=O)oc2c1C`, the EC50 on Mu-type opioid receptor was 92.5 µM (inactive); in [13], 18.9 µM (inactive).
As to `N#CC(C#N)=C1C=C2C=C(N3CCCCC3)CCC2CC1` (stereo not drawn), the results for the IC50 on Beta-lactamase [14] and on Beta-lactamase [15] were 2.51 µM (active) and 1.23 µM (active), respectively.
Turning to `C/C(CC(=O)Nc1ccc(N(C)C)cc1)=N\NC(=O)c1ccccn1`, the AC50 in test [16] was 78 µM (active). Besides, in test [17], the IC50 is > 20 µM (inactive).
Consider `Cc1coc(NC(=O)CSc2nc(-c3ccncc3)cc(C(F)(F)F)c2C#N)n1`, for which the IC50 in test [18] is 35.9 µM (inactive); on Fatty acid synthase [19], 18.5 µM (active); in test [20] it was 25.4 µM (inactive); on Fatty acid synthase [21], 14.8 µM (active).
